Measurements from patent publication US9617256B2 (priority 2007, dated 2017).
In brackets after ≈: the same amount, converted by molar mass.

Columns and labels:
AECO001 (ATCC25922) = experiment: MIC broth microdilution, AECO001; type: cell-based, E. coli; conditions: Escherichia coli, ATCC25922, read-out: MIC AECO001
Summary of the method: (§1)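 Incubation: 35° C., ambient air, 18-24 h. Medium: cation-adjusted Mueller-Hinton broth with 2-fold serial dilutions of drug. Inoculum: 3×10^5–7×10^5 CFU/mL final, per CLSI microdilution method.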

[1] = test system: ASAU001 (laboratory strain of S. aureus, ATCC29213); experiment: MIC broth microdilution, ASAU001; type: cell-based; conditions: Staphylococcus aureus, ATCC29213, read-out: MIC ASAU001
Summary of the method: as §1

[2] = test system: APAE006 (strain of P. aeruginosa in which all efflux pumps are inactivated); experiment: microbe, parasite or virus in culture; type: cell-based; conditions: Pseudomonas aeruginosa, read-out: MIC APAE006, P. aeruginosa, all efflux pumps inactivated
Summary of the method: as §1

[3] = test system: AECO063 (ATCC25922 bearing an acrAB mutation); experiment: microbe, parasite or virus in culture; type: cell-based, E. coli; conditions: Escherichia coli, ATCC25922, read-out: MIC AECO063
Summary of the method: as §1

[4] = test system: AABA1060 (clinical isolate of Acinetobacter baumannii); experiment: MIC broth microdilution, AABA1060; type: cell-based; conditions: Acinetobacter baumannii, read-out: MIC AABA1060
Summary of the method: as §1

AECO001 HSA AGP = experiment: MIC broth microdilution, AECO001 HSA AGP; type: cell-based, E. coli; conditions: Escherichia coli
Summary of the method: as §1

APAE001 (ATCC27853) = experiment: MIC broth microdilution, APAE001; type: cell-based, P. aeruginosa; conditions: Pseudomonas aeruginosa, ATCC27853, read-out: MIC APAE001, APAE001 is ATCC27853
Summary of the method: as §1

[5] = test system: APAE006 in the presence of 8 micrograms per milliliter of polymyxin B nonapeptide; type: cell-based, P. aeruginosa; conditions: in the presence of 8 micrograms per milliliter of polymyxin B nonapeptide
Summary of the method: as §1

SMILES	MIC (AECO001 (ATCC25922)) [µg/mL]	MIC [1] [µg/mL]	MIC [2] [µg/mL]	MIC [3] [µg/mL]	MIC [4] [µg/mL]	MIC (AECO001 HSA AGP) [µg/mL]	MIC (APAE001 (ATCC27853)) [µg/mL]	MIC APAE006 + PMBN [5]
C[C@@H](O)[C@H](NC(=O)c1ccc(/C=C/C#Cc2ccc(CN3CCOCC3)cc2)cc1)C(=O)NO [Example 30-12a]	< 2	> 64	< 2	< 2	2 to 16 (≈ 4.31 to 34.5 µM)	< 2	< 2	A (MIC's of 2.0 μg/mL or less = A)
CN(C)CC(=O)NC[C@H](NC(=O)c1ccc(/C=C/C#Cc2ccc(CN3CCOCC3)cc2)cc1)C(=O)NO [Example 111-2]	2 to 16 (≈ 3.75 to 30 µM)	16 to 64 (≈ 30 to 120 µM)	< 2	< 2	2 to 16 (≈ 3.75 to 30 µM)	2 to 16 (≈ 3.75 to 30 µM)	2 to 16 (≈ 3.75 to 30 µM)	A (MIC's of 2.0 μg/mL or less = A)
C[C@@H](N)[C@H](NC(=O)c1ccc(/C=C/C#Cc2cccnc2)cc1)C(=O)NO [Example 114-9]	2 to 16 (≈ 5.49 to 43.9 µM)	16 to 64 (≈ 43.9 to 176 µM)	< 2	< 2	2 to 16 (≈ 5.49 to 43.9 µM)	2 to 16 (≈ 5.49 to 43.9 µM)	< 2	A (MIC's of 2.0 μg/mL or less = A)
CCNCc1ccc(C#Cc2ccc(C(=O)N[C@H](C(=O)NO)[C@@H](C)N)cc2)cc1 [Example 119-6]	2 to 16 (≈ 5.07 to 40.6 µM)	16 to 64 (≈ 40.6 to 162 µM)	< 2	< 2	16 to 64 (≈ 40.6 to 162 µM)	2 to 16 (≈ 5.07 to 40.6 µM)	< 2	A (MIC's of 2.0 μg/mL or less = A)
C[C@@H](N)[C@H](NC(=O)c1ccc(/C=C/C#Cc2ccc(Cl)cc2)cc1)C(=O)NO [Example 114-10]	< 2	16 to 64 (≈ 40.2 to 161 µM)	< 2	< 2	2 to 16 (≈ 5.03 to 40.2 µM)	2 to 16 (≈ 5.03 to 40.2 µM)	2 to 16 (≈ 5.03 to 40.2 µM)	A (MIC's of 2.0 μg/mL or less = A)
C[C@@H](N)[C@H](NC(=O)c1ccc(C#Cc2ccc(CN3CCOCC3)cc2)cc1)C(=O)O [Example 117-2, (2S,3R)-3-Amino-2-[4-(4-morpholin-4-ylmethyl-phenylethynyl)-benzoylamino]-butyric acid]	> 64	> 64	> 64	> 64	> 64	> 64	> 64	C (MIC's of greater than 16.0 μg/mL to 64.0 μg/mL = C)
CN(C)CC(=O)NC[C@H](NC(=O)c1ccc(C#C/C=C/c2ccc(CN3CCOCC3)cc2)cc1)C(=O)NO [Example 98-2, N—[(S)-2-(2-dimethylamino-acetylamino)-1-hydroxycarbamoyl-ethyl]-4-[(E)-4-(4-morpholin-4-ylmethyl-phenyl)-but-3-en-1-ynyl]-benzamide]	< 2	16 to 64 (≈ 30 to 120 µM)	< 2	< 2	16 to 64 (≈ 30 to 120 µM)	2 to 16 (≈ 3.75 to 30 µM)	2 to 16 (≈ 3.75 to 30 µM)	A (MIC's of 2.0 μg/mL or less = A)
C[C@@H](N)[C@H](NC(=O)c1ccc(C#Cc2ccc(CN)cc2)cc1)C(=O)NO [Example 131-1, N-((1S,2R)-2-Amino-1-hydroxycarbamoyl-propyl)-4-(4-aminomethyl-phenylethynyl)-benzamide]	16 to 64 (≈ 43.7 to 175 µM)	> 64	< 2	16 to 64 (≈ 43.7 to 175 µM)	> 64	> 64	2 to 16 (≈ 5.46 to 43.7 µM)	A (MIC's of 2.0 μg/mL or less = A)
C[C@@H](N)[C@H](NC(=O)c1ccc(C#CC#Cc2ccc(OC(F)(F)F)cc2)cc1)C(=O)NO [Example 82-11]	2 to 16 (≈ 4.49 to 35.9 µM)	16 to 64 (≈ 35.9 to 144 µM)	2 to 16 (≈ 4.49 to 35.9 µM)	< 2	16 to 64 (≈ 35.9 to 144 µM)	2 to 16 (≈ 4.49 to 35.9 µM)	16 to 64 (≈ 35.9 to 144 µM)	A (MIC's of 2.0 μg/mL or less = A)
C[C@@H](N)[C@H](NC(=O)c1ccc(C#CC#Cc2ccccc2Cl)cc1)C(=O)NO [Example 82-10]	< 2	2 to 16 (≈ 5.05 to 40.4 µM)	< 2	< 2	2 to 16 (≈ 5.05 to 40.4 µM)	2 to 16 (≈ 5.05 to 40.4 µM)	2 to 16 (≈ 5.05 to 40.4 µM)	A (MIC's of 2.0 μg/mL or less = A)
C[C@@H](N)[C@H](NC(=O)c1ccc(C#CC#Cc2ccccn2)cc1)C(=O)NO [Example 88-4]	2 to 16 (≈ 5.52 to 44.2 µM)	> 64	< 2	< 2	16 to 64 (≈ 44.2 to 177 µM)	16 to 64 (≈ 44.2 to 177 µM)	< 2	A (MIC's of 2.0 μg/mL or less = A)
C[C@H](N)[C@H](NC(=O)c1ccc(C#Cc2ccccc2)cc1)C(=O)NO [Example 133-1, N-((1S,2S)-2-Amino-1-hydroxycarbamoyl-propyl)-4-phenylethynyl-benzamide]	< 2	16 to 64 (≈ 47.4 to 190 µM)	< 2	< 2	< 2	2 to 16 (≈ 5.93 to 47.4 µM)	< 2	A (MIC's of 2.0 μg/mL or less = A)
C[C@@H](N)[C@H](NC(=O)c1ccc(C#Cc2ccc(CNCCC#N)cc2)cc1)C(=O)NO [Example 118-8]	< 2	16 to 64 (≈ 38.1 to 153 µM)	< 2	< 2	2 to 16 (≈ 4.77 to 38.1 µM)	2 to 16 (≈ 4.77 to 38.1 µM)	< 2	A (MIC's of 2.0 μg/mL or less = A)
C[C@@H](N)[C@H](NC(=O)c1ccc(C#C/C=C/c2ccc(CO)cc2)cc1)C(=O)NO [Example 101-3]	< 2	16 to 64 (≈ 40.7 to 163 µM)	< 2	< 2	2 to 16 (≈ 5.08 to 40.7 µM)	2 to 16 (≈ 5.08 to 40.7 µM)	< 2	A (MIC's of 2.0 μg/mL or less = A)
C[C@@H](N)[C@H](NC(=O)c1ccc(C#Cc2ccncc2)cc1)C(=O)NO [Example 133-8]	16 to 64 (≈ 47.3 to 189 µM)	> 64	< 2	2 to 16 (≈ 5.91 to 47.3 µM)	16 to 64 (≈ 47.3 to 189 µM)	16 to 64 (≈ 47.3 to 189 µM)	2 to 16 (≈ 5.91 to 47.3 µM)	A (MIC's of 2.0 μg/mL or less = A)
C[C@H](N)[C@H](NC(=O)c1ccc(C#Cc2ccc(CO)cc2)cc1)C(=O)NO [Example 133-4]	2 to 16 (≈ 5.44 to 43.5 µM)	> 64	< 2	< 2	> 64	16 to 64 (≈ 43.5 to 174 µM)	< 2	A (MIC's of 2.0 μg/mL or less = A)
NC[C@H](NC(=O)c1ccc(/C=C/C#Cc2ccc(CO)cc2)cc1)C(=O)NO [Example 112-2]	2 to 16 (≈ 5.27 to 42.2 µM)	> 64	< 2	< 2	> 64	16 to 64 (≈ 42.2 to 169 µM)	2 to 16 (≈ 5.27 to 42.2 µM)	A (MIC's of 2.0 μg/mL or less = A)
C[C@@H](N)[C@H](NC(=O)c1ccc(C#Cc2ccc(CCO)cc2)cc1)C(=O)NO [Example 120-3]	< 2	> 64	< 2	< 2	2 to 16 (≈ 5.24 to 41.9 µM)	2 to 16 (≈ 5.24 to 41.9 µM)	< 2	A (MIC's of 2.0 μg/mL or less = A)
